# Values of other authors in patent US7026311B2, “Dibenzodiazepine derivatives, their preparation and use” (Abbott GmbH & Co., KG, priority 2002, dated 2006).
# Conditions: S. Cuzzocrea et al., Br. J. Pharmacol. 1997
compound,measurement,value
"NC(=O)c1cccc(N)c1 [Example 3-aminobenzamide, 3-aminobenzamide]",effects in a model of circulatory shock,protective effects
